Laboratory results published in patent US9833497B2, “Human originated EGF domain proteins and use of the same” (CHENGDU SOURCEBIO LIMITED-LIABILITY COMPANY, priority 2013, dated 2017).

Legend:
Format in all cases: cell-based
E. coli DH5α = experiment: Antibacterial activity: MIC and growth curve against E. coli DH5α in 96-well plate; details: minimal inhibitory concentration against E. coli DH5α; 96-well plate, 5×10^5 CFU/mL, 37° C., judged after 8 h
In short: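 MIC taken as lowest protein level with no bacterial growth, tracked by A600 every 30 min during 37 °C, 175 rpm culture. Two-fold protein series 50-12.5 μg/mL final, triplicate wells, against 5×10^5 CFU/mL of LB-washed mid-log cells.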

E. coli BL21 = experiment: MIC against Gram-negative bacteria: E. coli BL21; details: for MIC / MIC (μg/mL) E. coli BL21: E. coli BL21
In short: (§1)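 Broth microdilution, LB medium, final inoculum 5×10^5 CFU/mL from McFarland 0.5 cultures. Recombinant human EGF domain proteins tested in two-fold steps, n=3. MIC: lowest concentration, no growth.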

Pseudomonas aeruginosa = experiment: MIC against Gram-negative bacteria: Pseudomonas aeruginosa
In short: as §1

Klebsiella pneumonia = experiment: MIC against Gram-negative bacteria: Klebsiella pneumonia
In short: as §1

Enterobacter cloacae = experiment: MIC against Gram-negative bacteria: Enterobacter cloacae
In short: as §1

Aeromonas hydrophila = experiment: MIC against Gram-negative bacteria: Aeromonas hydrophila
In short: as §1

Citrobacter diversus = experiment: MIC against Gram-negative bacteria: Citrobacter diversus
In short: as §1

Moraxella catarrhalis = experiment: MIC against Gram-negative bacteria: Moraxella catarrhalis
In short: as §1

Proteus mirabilis = experiment: MIC against Gram-negative bacteria: Proteus mirabilis
In short: as §1

Proteus vulgaris = experiment: MIC against Gram-negative bacteria: Proteus vulgaris
In short: as §1

Serratia marcescens = experiment: MIC against Gram-negative bacteria: Serratia marcescens
In short: as §1

[1] = P. aeruginosa, 10 h cultivation at 37° C.
[2] = K. pneumonia, 10 h cultivation at 37° C.
[3] = E. cloacae, 10 h cultivation at 37° C.
[4] = A. hydrophila, 10 h cultivation at 37° C.
[5] = C. diversus, 10 h cultivation at 37° C.
[6] = M. catarrhalis, 10 h cultivation at 37° C.
[7] = P. mirabilis, 10 h cultivation at 37° C.
[8] = P. vulgaris, 10 h cultivation at 37° C.
[9] = S. marcescens, 10 h cultivation at 37° C.
[10] = 96-well plate, 5×10^5 CFU/mL, 37° C., 10 h
[11] = Pseudomonas aeruginosa, 96-well plate, 5×10^5 CFU/mL, 37° C., 10 h
[12] = Klebsiella pneumonia, 96-well plate, 5×10^5 CFU/mL, 37° C., 10 h
[13] = Enterobacter cloacae, 96-well plate, 5×10^5 CFU/mL, 37° C., 10 h
[14] = Aeromonas hydrophila, 96-well plate, 5×10^5 CFU/mL, 37° C., 10 h
[15] = Citrobacter diversus, 96-well plate, 5×10^5 CFU/mL, 37° C., 10 h
[16] = Moraxella catarrhalis, 96-well plate, 5×10^5 CFU/mL, 37° C., 10 h
[17] = Proteus mirabilis, 96-well plate, 5×10^5 CFU/mL, 37° C., 10 h
[18] = Proteus vulgaris, 96-well plate, 5×10^5 CFU/mL, 37° C., 10 h
[19] = Serratia marcescens, 96-well plate, 5×10^5 CFU/mL, 37° C., 10 h

| Substance | MIC (E. coli DH5α) [µg/mL] | MIC (E. coli BL21; 10 h cultivation at 37° C.) [µg/mL] | MIC (Pseudomonas aeruginosa; [1]) [µg/mL] | MIC (Klebsiella pneumonia; [2]) [µg/mL] | MIC (Enterobacter cloacae; [3]) [µg/mL] | MIC (Aeromonas hydrophila; [4]) [µg/mL] | MIC (Citrobacter diversus; [5]) [µg/mL] | MIC (Moraxella catarrhalis; [6]) [µg/mL] | MIC (Proteus mirabilis; [7]) [µg/mL] | MIC (Proteus vulgaris; [8]) [µg/mL] | MIC (Serratia marcescens; [9]) [µg/mL] | MIC (μg/mL) E. coli BL21 (E. coli BL21; [10]) [µg/mL] | MIC (μg/mL) P. aeruginosa (Pseudomonas aeruginosa; [11]) [µg/mL] | MIC (μg/mL) K. pneumonia (Klebsiella pneumonia; [12]) [µg/mL] | MIC (μg/mL) E. cloacae (Enterobacter cloacae; [13]) [µg/mL] | MIC (μg/mL) A. hydrophila (Aeromonas hydrophila; [14]) [µg/mL] | MIC (μg/mL) C. diversus (Citrobacter diversus; [15]) [µg/mL] | MIC (μg/mL) M. catarrhalis (Moraxella catarrhalis; [16]) [µg/mL] | MIC (μg/mL) P. mirabilis (Proteus mirabilis; [17]) [µg/mL] | MIC (μg/mL) P. vulgaris (Proteus vulgaris; [18]) [µg/mL] | also measured |
| --- | --- | --- | --- | --- | --- | --- | --- | --- | --- | --- | --- | --- | --- | --- | --- | --- | --- | --- | --- | --- | --- |
| PRT912 (DVNECLSNPCDARGTQNCVQRVNDFHCECRAGHTGRRCE; listed as Homo sapiens) | 25 | 12.5 | 25 | 50 | 25 | 100 | 50 | 12.5 | 50 | 100 | 50 |  |  |  |  |  |  |  |  |  |  |
| PRT36 (PVRDCSKDNGGCSKNFRCISDRKLDSTGCVCPSGLSPMKDSSGCY; listed as Homo sapiens) | 12.5 |  |  |  |  |  |  |  |  |  |  | 25 | 12.5 | 12.5 | 25 | 25 | 50 | 25 | 25 | 12.5 | MIC (μg/mL) S. marcescens (Serratia marcescens; [19]): 25 µg/mL |
| PRT465 (ALDPCASGPCLNGGSCSNTQDPQSYHCSCPRAFTGKDCG; listed as Homo sapiens) | 50 |  |  |  |  |  |  |  |  |  |  |  |  |  |  |  |  |  |  |  | MIC against E. coli BL21 (E. coli BL21; [10]): 12.5 µg/mL; MIC against P. aeruginosa (Pseudomonas aeruginosa; [10]): 50 µg/mL; MIC against K. pneumonia (Klebsiella pneumonia; [10]): 12.5 µg/mL; MIC against E. cloacae (Enterobacter cloacae; [10]): 50 µg/mL; MIC against A. hydrophila (Aeromonas hydrophila; [10]): 12.5 µg/mL; MIC against C. diversus (Citrobacter diversus; [10]): 50 µg/mL; MIC against M. catarrhalis (Moraxella catarrhalis; [10]): 12.5 µg/mL; MIC against P. mirabilis (Proteus mirabilis; [10]): 50 µg/mL; MIC against P. vulgaris (Proteus vulgaris; [10]): 12.5 µg/mL; MIC against S. marcescens (Serratia marcescens; [10]): 50 µg/mL |
| PRT850 (CQCHGHVDPVKTPKICKPESGECINCLHNTTGFWCENCLEGYVHDLEGNCIK; listed as Homo sapiens) | 50 |  |  |  |  |  |  |  |  |  |  |  |  |  |  |  |  |  |  |  | MIC (μg/mL) E. coli BL21 (E. coli BL21; 10 h cultivation at 37° C., 5×10^5 CFU/mL): 25 µg/mL; MIC (μg/mL) P. aeruginosa (Pseudomonas aeruginosa; P. aeruginosa, 10 h cultivation at 37° C., 5×10^5 CFU/mL): 12.5 µg/mL; MIC (μg/mL) K. pneumonia (Klebsiella pneumonia; K. pneumonia, 10 h cultivation at 37° C., 5×10^5 CFU/mL): 50 µg/mL; MIC (μg/mL) E. cloacae (Enterobacter cloacae; E. cloacae, 10 h cultivation at 37° C., 5×10^5 CFU/mL): 12.5 µg/mL; MIC (μg/mL) A. hydrophila (Aeromonas hydrophila; A. hydrophila, 10 h cultivation at 37° C., 5×10^5 CFU/mL): 50 µg/mL; MIC (μg/mL) C. diversus (Citrobacter diversus; C. diversus, 10 h cultivation at 37° C., 5×10^5 CFU/mL): 12.5 µg/mL; MIC (μg/mL) M. catarrhalis (Moraxella catarrhalis; M. catarrhalis, 10 h cultivation at 37° C., 5×10^5 CFU/mL): 50 µg/mL; MIC (μg/mL) P. mirabilis (Proteus mirabilis; P. mirabilis, 10 h cultivation at 37° C., 5×10^5 CFU/mL): 12.5 µg/mL; MIC (μg/mL) P. vulgaris (Proteus vulgaris; P. vulgaris, 10 h cultivation at 37° C., 5×10^5 CFU/mL): 25 µg/mL; MIC (μg/mL) S. marcescens (Serratia marcescens; S. marcescens, 10 h cultivation at 37° C., 5×10^5 CFU/mL): 50 µg/mL |
| PRT913 (VINGCKGKPCKNGGTCAVASNTARGFICKCPAGFEGATCE; listed as Homo sapiens) | 12.5 | 25 | 50 | 25 | 12.5 | 25 | 25 | 50 | 25 | 12.5 | 50 |  |  |  |  |  |  |  |  |  |  |
| PRT70 (VDDPCTSSPCPPNSRCHDAWEDYSCVCDKGYLGINC; listed as Homo sapiens) | 12.5 |  |  |  |  |  |  |  |  |  |  | 12.5 | 12.5 | 25 | 12.5 | 25 | 12.5 | 12.5 | 50 | 12.5 | MIC (μg/mL) S. marcescens (Serratia marcescens; [19]): 25 µg/mL |
